The source of these data is patent US20210214734A1, “METHODS FOR SELECTIVELY INHIBITING MOLECULAR CHAPERONE CLIENTS AND COMPOSITIONS FOR USE THEREOF” (Research Foundation for the State University of New York, priority 2020, published 2021).

For one assay, the system named is 786-O cells. The experiment in a line: Apoptosis by cleaved caspase-3 immunoblot in 786-O cells. The class given is cell-based. Conditions: 786-O clear cell renal cell carcinoma cell line. As to the method: (§1) Human embryonic kidney (HEK293) and 786-O cells were acquired from the American Type Culture Collection (ATCC). HEK293 cells were grown in Dulbecco's Modified Eagle Medium (DMEM, Millipore-Sigma) and 786-O cells were grown in Roswell Park Memorial Institute (RPMI-1640, Millipore-Sigma) medium supplemented with 10% fetal bovine serum (FBS, Millipore-Sigma) in a CellQ incubator (Panasonic Healthcare) at 37° C. in 5% CO2.
Cultured cells were seeded 24 h prior to treatment. Peptides were added to cells at 50% confluency at the indicated concentrations and incubated for 24 h, followed by protein extraction as described below.
(§2) Protein extraction from mammalian cells was carried out using methods previously described. See Woodford et al., Cell Reports, 14, 872-884 (2016). For immunoprecipitation, protein lysates were incubated with Hsp90 antibody for 2 h followed by incubation with protein G agarose (Qiagen) for 2 h at 4° C. Immunopellets were washed 4 times with fresh lysis buffer (20 mM Tris (pH7.4), 100 mM NaCl, 1 mM MgCl2, 0.1% NP40, protease inhibitor cocktail (Roche), and PhosSTOP (Roche)) and eluted with 5× Laemmli buffer. Precipitated proteins were separated by SDS-PAGE and transferred to nitrocellulose membranes. Co-immunoprecipitated proteins were detected by immunoblotting with the indicated antibodies, diluted in 5% non-fat dry milk reconstituted in TBST.

The subject of the next assay is Akt. The experiment in a line: Immunoblot of unrelated client Akt in HEK293 cells. Conditions: 10 μM, 36 hours, selectivity control. The class given is cell-based, human. Here is the method: as §1
(§3) Cultured cells were seeded 24 h prior to treatment. […]
as §2
A general note: A western blot detects proteins with antibodies after separation by electrophoresis.

The target of the next assay is T1, Cdc37 (Homo sapiens, UniProt Q16543).
T1 sequence (Q16543 1-378): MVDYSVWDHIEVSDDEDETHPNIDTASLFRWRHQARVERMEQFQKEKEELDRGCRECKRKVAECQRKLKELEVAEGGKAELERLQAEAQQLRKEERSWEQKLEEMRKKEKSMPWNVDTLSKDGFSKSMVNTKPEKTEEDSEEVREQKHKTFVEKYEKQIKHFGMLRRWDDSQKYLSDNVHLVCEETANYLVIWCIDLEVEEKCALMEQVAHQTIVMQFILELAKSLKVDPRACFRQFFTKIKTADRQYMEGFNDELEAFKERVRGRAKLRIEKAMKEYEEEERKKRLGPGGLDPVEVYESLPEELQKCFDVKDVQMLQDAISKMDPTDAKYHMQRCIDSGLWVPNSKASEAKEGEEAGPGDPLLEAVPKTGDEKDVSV
The experiment in a line: 19F NMR R2 filter binding to Cdc37. Set-up: dose or concentration left out as unconfirmed. As to the method:
(§4) All the NMR experiments have been recorded at 298° K with a Bruker FT NMR Avance III 600-MHz spectrometer equipped with a 5-mm CryoProbe™ QCI^1H/^19F-^13C/^15N-D quadruple resonance, a shielded z-gradient coil, and the automatic sample handling system such as a SAMPLEJET™ brand sampling system with temperature control.
(§5) ^19F NMR experiments are a well-recognized approach to study the interaction between small molecules or peptides and proteins. […] This is due to the large dynamic range defined as the difference of the NMR measured response in the free and protein-bound states. ^19F R2 filter NMR experiments are among the most sensitive techniques for weak binding detection. See Dalvit et al., Journal of American Chemical Society, 125, 7696-7703 (2003). The transverse relaxation rate R2 is a very sensitive parameter for these studies, due to the large Chemical Shift Anisotropy (CSA) of ^19F nucleus and to the large exchange contribution See Dalvit et al., Journal of American Chemical Society, 125, 7696-7703 (2003); the compounds/peptides that interact with the receptor will show a broadening and intensity reduction in their ^19F NMR signal in presence of the protein
(§6) The 5 mM stock solution peptides were prepared in 100% in DMSOd6. Solubility and purity of the peptides in PBS buffer pH 7.4, 10% D2O (for the lock signal) were checked by ^19F and ^1H NMR spectroscopy. 1D ^19F NMR experiments were recorded with proton decoupling with the Waltz-16 scheme during the acquisition period with an acquisition time of 0.95 s, a relaxation delay of 30 s. whereas 1D version of the NOESY (nuclear Overhauser effect spectroscopy) pulse sequence with H2O signal presaturation, a mixing time of 10 ms and a relaxation delay of 30 s was used for ^1H NMR experiments.
(§7) For the binding studies R2 filter experiments were recorded with the Carr-Purcell-Meibom-Gill scheme with a time interval of 23.5 ms between the 180° pulses with a loop of 2, an acquisition time of 0.95 s a D1 of 5 s and a number of scans of 512. All the ^19F chemical shifts are referenced to the CFCl3 signal in water.

The target of another assay is Hsp90β-FLAG (Homo sapiens, UniProt P08238). In words: Biotinylated peptide streptavidin pulldown of Hsp90β. The class given is binding. Conditions: lysate of HEK293 overexpressing Hsp90β-FLAG. Here is the method: (§8) Total cell lysates prepared as described above were incubated with the indicated amounts of biotinylated peptide at 4° C. for 1 h. Streptavidin agarose beads (ThermoScientific) were added and incubated 1 additional hour with gentle rotation. Bound Hsp90 was detected by immunoblotting as described herein.
Sequence of Hsp90β-FLAG (P08238 whole entry): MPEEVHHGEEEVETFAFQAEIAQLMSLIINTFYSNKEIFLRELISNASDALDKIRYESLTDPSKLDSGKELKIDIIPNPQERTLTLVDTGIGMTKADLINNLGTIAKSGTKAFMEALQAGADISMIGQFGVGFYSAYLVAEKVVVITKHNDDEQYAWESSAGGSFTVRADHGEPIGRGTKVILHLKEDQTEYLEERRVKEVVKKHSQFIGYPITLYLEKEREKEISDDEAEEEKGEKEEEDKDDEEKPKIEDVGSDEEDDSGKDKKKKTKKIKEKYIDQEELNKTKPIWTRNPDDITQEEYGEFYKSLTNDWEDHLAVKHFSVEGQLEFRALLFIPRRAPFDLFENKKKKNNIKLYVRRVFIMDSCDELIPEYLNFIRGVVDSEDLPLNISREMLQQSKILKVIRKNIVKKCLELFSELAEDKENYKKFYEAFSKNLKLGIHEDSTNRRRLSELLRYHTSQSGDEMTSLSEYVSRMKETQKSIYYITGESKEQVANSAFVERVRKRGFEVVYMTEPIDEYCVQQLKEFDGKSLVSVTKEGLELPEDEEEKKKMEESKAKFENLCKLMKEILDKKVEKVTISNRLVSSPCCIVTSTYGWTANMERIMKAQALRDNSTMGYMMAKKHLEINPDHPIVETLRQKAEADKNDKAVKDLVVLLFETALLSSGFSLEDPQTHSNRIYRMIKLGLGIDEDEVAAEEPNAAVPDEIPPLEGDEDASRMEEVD

The next assay concerns the target Aha1 (Homo sapiens, UniProt O95433). The experiment in a line: 19F NMR R2 filter binding to Aha1. Conditions: cAbl peptides at 10 mM. Here is the method: as §4
^19F NMR experiments are a well-recognized approach to study the interaction between small molecules or peptides and proteins. […] This is due to the large dynamic range defined as the difference of the NMR measured response in the free and protein-bound states. ^19F R2 filter NMR experiments are among the most sensitive techniques for weak binding detection. […]
The 5 mM stock solution peptides were prepared in 100% in DMSOd6. […] 1D ^19F NMR experiments were recorded with proton decoupling with the Waltz-16 scheme during the acquisition period with an acquisition time of 0.95 s, a relaxation delay of 30 s. whereas 1D version of the NOESY (nuclear Overhauser effect spectroscopy) pulse sequence with H2O signal presaturation, a mixing time of 10 ms and a relaxation delay of 30 s was used for ^1H NMR experiments.
For the binding studies R2 filter experiments were recorded with the Carr-Purcell-Meibom-Gill scheme with a time interval of 23.5 ms between the 180° pulses with a loop of 2, an acquisition time of 0.95 s a D1 of 5 s and a number of scans of 512. […]

For a further assay, the system named is c-Abl-Hsp90 interaction. The experiment in a line: Hsp90 immunoprecipitation, c-Abl association in HEK293 cells. The class given is cell-based, human. Conditions: 10 μM, 36 hours, IP of endogenous Hsp90. As to the method: as §1, §3, §2
In the next assay the test system is Aha1-Hsp90 complex. In words: Hsp90 immunoprecipitation, Aha1-Hsp90 complex in HEK293 cells. It is filed as cell-based, human. Conditions: 10 μM, 36 hours. Here is the method: as §1, §3, §2
The next assay has as its system Cdk4. The experiment in a line: Immunoblot of unrelated client Cdk4 in HEK293 cells. Conditions: 10 μM, 36 hours, selectivity control. The class given is cell-based, human. As to the method: as §1, §3, §2
For a further assay, the system named is full length human Hsp90. The experiment in a line: 19F NMR R2 filter binding to Hsp90. Details: 19F NMR signal change in presence of Hsp90 (binding): dose or concentration left out as unconfirmed. As to the method: as §4, §5, §6, §7
For assay [1], the target named is Human Serum Albumin (HSA) (Homo sapiens, UniProt P02768). In words: 19F NMR control for non-specific binding to HSA. Conditions: 40 mM A01, A02 with 10 mM HSA. Here is the method:
as §4, §5, §6, §7

The subject of a further assay is c-Abl. The experiment in a line: c-Abl protein level by immunoblot in treated HEK293 cells. The class given is cell-based, human. Conditions: 10 μM A01 or A02 with and without TAT, 36 hours. Here is the method:
as §1, §3, §2

The target in another assay is Hsp90α-FLAG (Homo sapiens, UniProt P07900). The experiment in a line: Biotinylated peptide streptavidin pulldown of Hsp90α. It is filed as binding. As to the method:
as §8

A further assay deals with c-Src. In words: Immunoblot of unrelated client c-Src in HEK293 cells. The class given is cell-based, human. Conditions: 10 μM, 36 hours, selectivity control. Here is the method: as §1, §3, §2

Where no end group is shown, it is not given here. [ ]: non-standard residue; d: D form. Phe(4-F) = N[C@@H](Cc1ccc(F)cc1)C(=O)O

Sequence of Aha1 (O95433 whole entry, species assumed): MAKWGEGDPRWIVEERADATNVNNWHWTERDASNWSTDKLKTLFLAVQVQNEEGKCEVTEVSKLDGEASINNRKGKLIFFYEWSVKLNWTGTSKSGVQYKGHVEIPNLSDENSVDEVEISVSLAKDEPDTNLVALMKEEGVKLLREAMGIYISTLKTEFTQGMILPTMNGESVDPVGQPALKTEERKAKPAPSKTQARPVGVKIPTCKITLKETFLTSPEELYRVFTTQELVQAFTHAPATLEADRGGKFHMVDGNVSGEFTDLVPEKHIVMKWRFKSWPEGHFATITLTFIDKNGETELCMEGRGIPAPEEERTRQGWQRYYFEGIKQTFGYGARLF

Consider “GEMGKGGKGRVPYPGMVNREVLDQVERGF(F)RM (GEMGKGGKGRVPYPGMVNREVLDQVERG[Phe(4-F)]RM) [c-Src02, c-Src mimic peptide]”, for which the “apoptosis (elevation of cleaved caspase-3)” value with 786-O cells was “except c-Src02, induced apoptosis”.
As for “LGGGQF(F)GEVYGGVAVKTLGGGEFLDEAAVMK (LGGGQ[Phe(4-F)]GEVYGGVAVKTLGGGEFLDEAAVMK) [A01, F(F) = 4-Fluoro-L-phenylalanine]”, in the assay with Akt, the “Akt stability or activity” value was “neither the related kinase c-Src nor the client kinases Cdk4 or Akt showed a defect in stability or activity”. Moreover, the “binding to Cdc37 by 19F NMR” value with Cdc37 is given as “showed the ability to bind Cdc37”. Also, in the assay with Hsp90β-FLAG, the “binding to Hsp90β in pulldown” value was “binds with higher affinity to both isoforms of Hsp90”. Further, the “binding to Aha1 by 19F NMR” value in the assay with Aha1 is given as “but not Aha1”. In addition, the “dissociation of c-Abl from Hsp90” value with c-Abl-Hsp90 interaction is given as “dissociation of c-Abl from Hsp90”. Further, in the assay on Aha1-Hsp90 complex, the Aha1-Hsp90 complex formation result is listed as “decreased Aha1-Hsp90 complex formation”. In the assay on Cdk4, the “Cdk4 stability or activity” value is “neither the related kinase c-Src nor the client kinases Cdk4 or Akt showed a defect in stability or activity”. Further, the “binding to Hsp90 when A01 and A02 are mixed” value in the assay with full length human Hsp90 (19F NMR, peptides mixed) is given as “continue to bind to Hsp90 even when they are mixed”. In addition, in the assay with full length human Hsp90 (19F R2 filter, peptides tested individually, A01), the “19F NMR signal change in presence of Hsp90 (binding)” value is “decrease in the presence of Hsp90, indicating peptide-protein binding”. Moreover, the “binding interaction with HSA by 19F NMR” value in assay [1] is given as “neither A01 nor A02 showed binding interaction with HSA”; in assay [1] (listed as AblO1), “do not interact with HSA”. Further, the c-Abl protein levels entry in the assay on c-Abl is “decrease of c-Abl protein levels”. For the same substance, the Hsp90 isoform specificity result with Hsp90α-FLAG (Hsp90α vs Hsp90β, biotinylated peptide pulldown) was “neither peptide demonstrates isoform specificity”. Moreover, the “binding to Hsp90α in pulldown” value with Hsp90α-FLAG (biotinylated peptide, lysate of HEK293 overexpressing Hsp90α-FLAG) is reported as “binds with higher affinity to both isoforms of Hsp90”. Further, the “c-Src stability or activity” value in the assay with c-Src was “neither the related kinase c-Src nor the client kinases Cdk4 or Akt showed a defect in stability or activity”.
